No end group written: not given here.
How the values were obtained:
[1] = tested on: tubulin polymerisation in COS-7 S10 cells; assay: In vivo tubulin polymerisation assay, COS-7 / COS-7 S10; type: cell-based, monkey; conditions: parental COS-7, 1 µg/ml doxycycline
Description: (§1) HeLa and S100P-inducible HeLa, COS-7 and S100P-inducible COS-7 cells were routinely cultured with or without doxycycline (1 µg/ml) and treated with 33 µM nocodazole for 24 h to synchronise the cells. Then the nocodazole was washed away (First release) and the synchronised cells were cultured in normal medium for 4 h to allow them to complete cell division. The nocodazole was then added again for 4 h to dissociate all the MTs. After this time, nocodazole was again removed by extensive washings (Second release) and tubulin was allowed to polymerise in the interphase of the cell cycle for different times. The cells were treated with buffer (10 mM Tris–HCl, 150 mM KCl, pH 7.4, 2% (v/v) Triton X-100) and the Triton-X100-insoluble tubulins (representing the newly formed MTs) were solubilised in Sample Buffer and quantified by Western blotting. To test the effect of tubulin-derived peptides, 20 µM T-DIC, T-DLV, T-IMN and tag-peptide alone (Supplementary Table S3) in 0.25% (v/v) DMSO as solvent, as well as the solvent control 0.25% (v/v) DMSO were added immediately after the second release in Sample Buffer and quantified at the different time points by Western blotting.

[2] = tested on: tubulin polymerisation in HeLa-A19 cells; assay: In vivo tubulin polymerisation assay, HeLa / HeLa-A19; type: cell-based, human; conditions: parental HeLa, 1 µg/ml doxycycline
Description: as §1

Recombinant S100P = target: T1, Recombinant S100P (UniProt P25815 1-95, 15N-labelled in the NMR experiments); assay: SPR; competition: 20 µM peptide mixed with 1 µM S100P, applied to the α,β-tubulin-coated chip; extent of binding relative to S100P alone (100%)
T1 chain: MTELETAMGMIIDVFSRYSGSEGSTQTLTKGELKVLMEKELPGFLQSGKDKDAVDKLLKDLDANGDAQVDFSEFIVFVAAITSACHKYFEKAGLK

S100P = target: T2, S100P (Homo sapiens, UniProt P25815); assay: Isothermal titration calorimetry (ITC) of tubulin peptides with S100P; type: binding; conditions: for affinity for S100P (in words): NMR and ITC
T2 construct: made in house
T2 sequence (P25815 1-95): T1 chain
Description: Measurements were conducted using an ITC-200 instrument (Microcal) as previously described. ITC titrations were performed in 20 mM MES pH 6.1, 50 mM NaCl, 1.0 mM TCEP and 5 mM CaCl2 (for Ca^2+-form of S100P) at 25°C. Due to low solubility, peptide solutions at concentrations of 10–400 µM were placed in the cell and titrated with S100P at concentrations of 0.5–3 mM, depending on the peptide concentration. Data were integrated and fitted to a single site binding equation using Origin 7 software which was included with the ITC module (Malvern Microcal, Malvern, U.K.).

[3] = cited from earlier work; for Kd: ref [58], read-out: Kd for Ca2+ in absence of protein target
Text: Cell migration is a complicated biological process involving many disparate cellular machines and regulatory systems. The cytoskeleton is essential for cell migration and is composed of three major types of fibres, intermediate filaments, actomyosin filaments and MTs. The intermediate filaments mainly provide mechanical strength to cells, whilst actomyosin filaments directly provide forces for cell migration. The roles of MTs in cell migration are more complex. On the one hand, MTs are a major support to cell polarity and their assembly can provide force for directional mo ...

COS-7 S10 cells = assay: Boyden chamber cell migration, S100P-inducible COS-7; type: cell-based, monkey
Text: (§2) Cell migration rate (%) = M/G × 100.

COS-7 cells = assay: Boyden chamber cell migration, COS-7 parental; type: cell-based, monkey; conditions: 5 µM colchicine, 24 h, COS-7
Text: as §2

Rama 37-T25 cells = assay: S100P-enhanced cell migration, Rama 37-T25; type: cell-based, rat; conditions: Rama 37-T25; 20 nM taxol or 5 µM colchicine, 24 h
Text: as §2

HeLa-A3 cells = assay: S100P-enhanced cell migration, HeLa-A3; type: cell-based, human; conditions: HeLa-A3; 20 nM taxol or 5 µM colchicine, 24 h
Text: as §2

HeLa cells = assay: Boyden chamber cell migration with MT regulators, HeLa; conditions: 5 µM colchicine, 24 h
MCF-7 cells = assay: Boyden chamber cell migration with MT regulators, MCF-7
Rama 37 cells = assay: Boyden chamber cell migration with MT regulators, Rama 37; conditions: 5 µM colchicine, 24 h
S100P - α,β-tubulin = assay: SPR inhibition of S100P binding to α,β-tubulin-coated chip by peptides; set-up: species or system human; conditions: 20 µM peptide, 1 µM S100P
Description: For SPR binding assays, α,β-tubulin proteins described earlier were immobilised on a carboxymethylated dextran surface of a CM5 chip using BS^3 for use in Biocore X100. Recombinant S100P produced as described previously was used as a ligand in different concentrations at 20, 50, 100, 200, 1000, 2000 nM for calculation of the equilibrium dissociation constant (Kd) from the association/dissociation rate constants and from the extent of binding near equilibrium (Supplementary Table S2), as described previously. To detect the effects of tubulin peptides on the interaction of tubulin, different concentrations of tagged and untagged peptides were mixed with 1 µM S100P first and the mixtures were then applied to the tubulin-coated chip. The relative changes in kinetics and binding extents with different peptides were calculated using software provided by the manufacturer.

tubulin = conditions: cited from earlier work; for interaction with tubulin: ref [24]; for effect on MT assembly: ref [25]
Text: The individual S100 proteins have been reported to interact inter alia with either NM or with tubulin, although with different binding affinities. […] Decreasing S100A1 is able to increase tubulin levels and this change alters neurite organisation in […]. […] However, it is ...

For `C[C@H]1c2cccc(O)c2C(=O)C2=C(O)[C@]3(O)C(=O)C(C(N)=O)=C(O)[C@@H](N(C)C)[C@@H]3[C@@H](O)[C@@H]21` [doxycycline, reference compound], the “effect of doxycycline on tubulin polymerisation, parental cells” value [1] was “no significant differences” and the “effect of doxycycline on tubulin polymerisation, parental cells” value [2] was “no significant differences”.

“DIC peptide, the 26mer starting with DIC from β-tubulin” showed a percent inhibition of the extent of binding of 1 µM S100P to α,β-tubulin at 20 µM peptide (Recombinant S100P) of over 50%.

In the case of VNAAIATIKTKRTIQFVDWCPTGFKVGINY [VNA], the Kd (S100P; ITC, 25°C, 20 mM MES pH 6.1, 50 mM NaCl, 1.0 mM TCEP, 5 mM CaCl2, single site fit, peptide in cell, S100P titrated) is reported as 62 µM and the “affinity for S100P (in words)” value (S100P) is reported as “relatively weak”.

With “T-DIC, DIC peptide with the N-terminal 10 amino acid TAT-HA2 tag for cell entry” the percent reduction of the extent of binding of 1 µM S100P to α,β-tubulin at 20 µM peptide (Recombinant S100P) was 50%.

With “T-DLV, DLV peptide with the N-terminal 10 amino acid TAT-HA2 tag for cell entry” the percent reduction of the extent of binding of 1 µM S100P to α,β-tubulin at 20 µM peptide (Recombinant S100P) was 50%.

In the case of S100A4: S100 protein, the “change of Ca2+ Kd in complex with NMIIA fragments” value ([3]; ITC, preformed S100A4/NMIIA fragments, ref [57]) is listed as “reduced by several orders of magnitude” and the Kd [3] is listed as over 1000 nM.

In the case of `COc1cc2c(c(OC)c1OC)-c1ccc(OC)c(=O)cc1[C@@H](NC(C)=O)CC2` [colchicine], the “effect on S100P-enhanced migration” value (COS-7 S10 cells; COS-7 S10, 20 nM taxol or 5 µM colchicine, 24 h) is reported as “suppressed”, the “effect on S100P's stimulation of migration” value (COS-7 S10 cells; taxol to stabilise MTs or colchicine to dissociate MTs (abstract)) is reported as “abolished” and the “reduction of migration by colchicine” value (COS-7 cells) is reported as 30–70%. For the same molecule, the “effect on S100P-enhanced migration” value (Rama 37-T25 cells) was “suppressed”, the “effect on S100P-enhanced migration” value (HeLa-A3 cells) was “suppressed” and the “reduction of migration by colchicine” value (HeLa cells) was 30–70%. The “effect of colchicine on migration (in words)” value (MCF-7 cells; MCF-7, 5 µM time course, dose response 24 h) was “increase dramatically cell migration in a time and dose-dependent manner”, the “concentration abolishing the enhancement of migration” value (MCF-7 cells; MCF-7, colchicine) was over 10 µM and the “incubation time abolishing the enhancement of migration” value (MCF-7 cells; MCF-7, colchicine) was over 24 h. For the same molecule, the “concentration range enhancing migration” value (MCF-7 cells; MCF-7, colchicine, Figure 6C) was 1 to 10 µM and the “reduction of migration by colchicine” value (Rama 37 cells) was 30–70%.

In the case of IMNTFSVVPSPKVSDTVVEPYNATL-SVH, the “affinity for S100P (in words)” value (S100P) is reported as “very weak or nonbinder” and the “effect on extent of binding of S100P to α,β-tubulin (in words)” value (S100P - α,β-tubulin) is reported as “showed no such effect”.

With “RRRQRRKKRG [Tag, 10 amino acid TAT-HA2 tag for cell entry, reference compound]” the “effect on extent of binding of S100P to α,β-tubulin (in words)” value (S100P - α,β-tubulin) was “showed no effect in the binding assay” and the “S100P-induced fold increase in migration in the presence of peptide” value (COS-7 S10 cells; 20 µM tagged peptide, 8 h, doxycycline-induced COS-7 S10 vs uninduced) was 3.5 fold.

For S100B: S100 protein, the interaction with tubulin (tubulin) is listed as “can interact with tubulin in a calcium-dependent manner”, the “effect on MT assembly” value (tubulin) is listed as “disrupt the assembly of MT” and the Kd [3] is listed as over 1000 nM.

B1: S100A1: S100 protein (protein, UniProt P23297 1-94, looked up)
Protein S100-A1: MGSELETAMETLINVFHAHSGKEGDKYKLSKKELKELLQTELSGFLDAQKDVDAVDKVMKELDENGDGEVDFQEYVVLVAALTVACNNFFWENS
In the case of B1, the interaction with tubulin (tubulin) is given as “can interact with tubulin in a calcium-dependent manner” and the “effect on MT assembly” value (tubulin) is given as “disrupt the assembly of MT”.

B2: S100A9/A8: S100A9/A8 (MRP14/MRP8) complex (protein, UniProt P06702 1-114; P05109 1-93, looked up)
Protein S100-A9: MTCKMSQLERNIETIINTFHQYSVKLGHPDTLNQGEFKELVRKDLQNFLKKENKNEKVIEHIMEDLDTNADKQLSFEEFIMLMARLTWASHEKMHEGDEGPGHHHKPGLGEGTP
Protein S100-A8: MLTELEKALNSIIDVYHKYSLIKGNFHAVYRDDLKKLLETECPQYIRKKGADVWFKELDINTDGAVNFQEFLILVIKMGVAAHKKSHEESHKE
In the case of B2, the “effect on tubulin polymerisation in vivo” value (tubulin; ref [27]) is given as “promotes tubulin polymerisation in vivo”.

From PMC7108782, “Direct interaction of metastasis-inducing S100P protein with tubulin causes enhanced cell migration without changes in cell adhesion” (Biochemical Journal, 2020)
